Laboratory results reported in PubChem BioAssay AID206 (DTP/NCI, 2004).
“And” between values parts separate entries of the source, which are not always exact repeats. Equal entries are not always repeated. Records with an inconclusive call do not appear.

Tested on: nude mice, HT29 intrarenal xenograft, tumor weight T/C
Experiment: NCI In Vivo Anticancer Drug Screen. Data for tumor model HT29;CX-1 Human Adenocarcinoma (MER+) (intrarenal inoculation) in NU/NU Swiss (nude) mice
Details: endpoint: mean tumor weight change, higher = larger tumour
Method in brief: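 Compounds were given to mice carrying transplantable tumors; a vehicle-dosed group served as control. The endpoint measured in each group was compared as a T/C quotient.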

[1] = dose: 4.0 mg/kg/injection, schedule: Q01DX010 (sc), vehicle: saline
[2] = dose: 150.0 mg/kg/injection, schedule: Q04DX004 (sc), vehicle: Klucel (hydroxypropylcellulose) (HPC)
[3] = dose: 300.0 mg/kg/injection, schedule: Q04DX004 (sc), vehicle: Klucel (hydroxypropylcellulose) (HPC)
[4] = dose: 600.0 mg/kg/injection, schedule: Q04DX004 (sc), vehicle: Klucel (hydroxypropylcellulose) (HPC)
[5] = dose: 1200.0 mg/kg/injection, schedule: Q04DX004 (sc), vehicle: Klucel (hydroxypropylcellulose) (HPC)
[6] = dose: 300.0 mg/kg/injection, schedule: Q04DX004 (sc), vehicle: saline
[7] = dose: 600.0 mg/kg/injection, schedule: Q04DX004 (sc), vehicle: saline
[8] = dose: 1200.0 mg/kg/injection, schedule: Q04DX004 (sc), vehicle: saline
[9] = dose: 50.0 mg/kg/injection, schedule: Q01DX010 (sc), vehicle: Klucel (hydroxypropylcellulose) (HPC)
[10] = dose: 100.0 mg/kg/injection, schedule: Q01DX010 (sc), vehicle: Klucel (hydroxypropylcellulose) (HPC)
[11] = dose: 1200.0 mg/kg/injection, schedule: Q04DX004 (sc), vehicle: suspension in saline
[12] = dose: 75.0 mg/kg/injection, schedule: Q04DX004 (sc), vehicle: Klucel (hydroxypropylcellulose) (HPC)
[13] = dose: 150.0 mg/kg/injection, schedule: Q04DX004 (sc), vehicle: suspension in saline

For N[C@H](C(=O)O)[C@@H]1CC(Cl)=NO1, the T/C [1] was 21 % of control and the T/C (dose: 8.0 mg/kg/injection, schedule: Q01DX010 (sc), vehicle: saline) was 35 % of control.

For O=C1[C@H]2CCC[C@H]2[C@H]2CCC[C@@H]12, the T/C (dose: 100.0 mg/kg/injection, schedule: Q04DX004 (sc), vehicle: saline with Tween-80) was 67 % of control, the T/C (dose: 200.0 mg/kg/injection, schedule: Q04DX004 (sc), vehicle: saline with Tween-80) was 44 % of control and the T/C (dose: 400.0 mg/kg/injection, schedule: Q04DX004 (sc), vehicle: saline with Tween-80) was 83 % of control. The T/C (dose: 800.0 mg/kg/injection, schedule: Q04DX004 (sc), vehicle: saline with Tween-80) was 82 % of control.

For C1CN2CCC1CC2, the T/C (dose: 9.38 mg/kg/injection, schedule: Q04DX004 (sc), vehicle: saline with Tween-80) was 65 % of control and the T/C (dose: 18.75 mg/kg/injection, schedule: Q04DX004 (sc), vehicle: saline with Tween-80) was 82 % of control.

For COc1cccc2c1C(=O)c1c(O)c3c(c(O)c1C2=O)C[C@@](O)(C(=O)CO)C[C@@H]3OC1CC(N)C(O)C(C)O1 (stereo partly drawn), the T/C (dose: 0.25 mg/kg/injection, schedule: Q01DX010 (ip), vehicle: water) was -27 % of control, the T/C (dose: 0.5 mg/kg/injection, schedule: Q01DX010 (sc), vehicle: saline) was 62 % of control and the T/C (dose: 1.0 mg/kg/injection, schedule: Q01DX010 (sc), vehicle: saline) was 30 % of control and 32 % of control. For the same compound, the T/C (dose: 1.5 mg/kg/injection, schedule: Q01DX010 (sc), vehicle: saline) was 96 % of control, the T/C (dose: 2.0 mg/kg/injection, schedule: Q01DX010 (ip), vehicle: water) was -20 % of control and the T/C (dose: 2.0 mg/kg/injection, schedule: Q01DX010 (sc), vehicle: saline) was 15 % of control and 29 % of control. The T/C (dose: 3.0 mg/kg/injection, schedule: Q01DX010 (sc), vehicle: saline) was 109 % of control, the T/C [1] was 4 % of control and 27 % of control and the T/C (dose: 6.0 mg/kg/injection, schedule: Q01DX010 (sc), vehicle: saline) was 102 % of control. For the same compound, the T/C (dose: 7.5 mg/kg/injection, schedule: Q04DX004 (sc), vehicle: saline) was 62 % of control.

For [O-][n+]1c(CN2CCCCC2)nc2cccc3c2c1-c1ccccc1-3, the T/C [2] was 274 % of control, the T/C [3] was 150 % of control and the T/C [4] was 239 % of control. The T/C [5] was 303 % of control.

In the case of C=C1C(=O)C2=CC1CCC(=O)C1(C)CCC(OC(C)=O)C(C)(C)C1CC2O (stereo not drawn), the T/C (dose: 60.0 mg/kg/injection, schedule: Q04DX004 (sc), vehicle: Klucel (hydroxypropylcellulose) (HPC)) is reported as 91 % of control and the T/C (dose: 120.0 mg/kg/injection, schedule: Q04DX004 (sc), vehicle: Klucel (hydroxypropylcellulose) (HPC)) is reported as 116 % of control.

In the case of C=CCc1cn(C2CC(O)C(CO)O2)c(=O)[nH]c1=O (stereo not drawn), the T/C [6] is reported as 71 % of control, the T/C [7] is reported as 99 % of control and the T/C [8] is reported as 64 % of control. The T/C (dose: 2400.0 mg/kg/injection, schedule: Q04DX004 (sc), vehicle: saline) was 71 % of control.

For CS(=O)(=O)OCCN(CCOS(C)(=O)=O)c1ccc(C=Nc2ccc(-c3csc(COc4ccccc4)n3)cc2)cc1, the T/C [9] was 72 % of control and the T/C [10] was 44 % of control.

Cn1cnc([N+](=O)[O-])c1[Se]c1nc(N)nc2nc[nH]c12 was tested, and the T/C (dose: 50.0 mg/kg/injection, schedule: Q01DX010 (sc), vehicle: water) was 100 % of control.

C/C=C/c1cc2n(c1)C(=O)c1cc(OC3OC(C)C(NC)C(C)(O)C3O)c(C)c(O)c1NC2O (stereo not drawn) was tested, and the T/C (dose: 12.5 micrograms/kg/injection, schedule: Q04DX004 (sc), vehicle: saline) was 69 % of control, the T/C (dose: 25.0 micrograms/kg/injection, schedule: Q04DX004 (sc), vehicle: saline) was 101 % of control and the T/C (dose: 50.0 micrograms/kg/injection, schedule: Q04DX004 (sc), vehicle: saline) was 83 % of control. For the same compound, the T/C (dose: 100.0 micrograms/kg/injection, schedule: Q04DX004 (sc), vehicle: saline) was 94 % of control.

OCC1OC(n2cnc3c(NO)ncnc32)C(O)C1O (stereo not drawn) was tested, and the T/C [2] was 47 % of control, the T/C [3] was 46 % of control and the T/C [4] was 52 % of control. The T/C [5] was 28 % of control.

For C=CCOCC1CO1 (stereo not drawn), the T/C (dose: 75.0 mg/kg/injection, schedule: Q04DX004 (sc), vehicle: saline) was 120 % of control, the T/C (dose: 150.0 mg/kg/injection, schedule: Q04DX004 (sc), vehicle: saline) was 100 % of control and the T/C [6] was 54 % of control.

With N=c1ccn2c(n1)OC1C(O)C(CO)OC12 (stereo not drawn) the T/C [6] was 50 % of control, the T/C (dose: 300.0 mg/kg/injection, schedule: Q04DX004 (sc), vehicle: suspension in saline) was 105 % of control and the T/C (dose: 400.0 mg/kg/injection, schedule: Q04DX004 (sc), vehicle: saline) was 98 % of control. The T/C [7] was 60 % of control, the T/C (dose: 600.0 mg/kg/injection, schedule: Q04DX004 (sc), vehicle: suspension in saline) was 66 % of control and the T/C (dose: 800.0 mg/kg/injection, schedule: Q04DX004 (sc), vehicle: saline) was 31 % of control. The T/C [8] was 42 % of control, the T/C [11] was 38 % of control and the T/C (dose: 1600.0 mg/kg/injection, schedule: Q04DX004 (sc), vehicle: saline) was 36 % of control. For the same compound, the T/C (dose: 2400.0 mg/kg/injection, schedule: Q04DX004 (sc), vehicle: suspension in saline) was 42 % of control.

In the case of C[C@H](CCC[C@H](C)OS(=O)(=O)c1ccccc1)OS(=O)(=O)c1ccccc1, the T/C (dose: 75.0 mg/kg/injection, schedule: Q04DX004 (sc), vehicle: saline with Tween-80) is reported as 49 % of control and the T/C (dose: 150.0 mg/kg/injection, schedule: Q04DX004 (sc), vehicle: saline with Tween-80) is reported as 35 % of control.

Cc1nn(CCO)c(C)c1N=[N+]([O-])c1c(C)nn(CCO)c1C was tested, and the T/C [12] was 68 % of control, the T/C [2] was 70 % of control and the T/C [3] was 44 % of control. For the same compound, the T/C [4] was 53 % of control and the T/C [5] was 102 % of control.

In the case of COC1C(O)CC(OC2CC(Oc3cc4cc5c(c(O)c4c(O)c3C)C(=O)[C@@H](OC3CC(OC4CC(OC6CC(C)(O)C(OC(C)=O)C(C)O6)C(O)C(C)O4)C(O)C(C)O3)[C@H]([C@H](OC)C(=O)[C@@H](O)[C@@H](C)O)C5)OC(C)C2OC(C)=O)OC1C (stereo partly drawn), the T/C (dose: 0.19 mg/kg/injection, schedule: Q04DX004 (sc), vehicle: Klucel (hydroxypropylcellulose) (HPC)) is reported as 103 % of control, the T/C (dose: 0.3 mg/kg/injection, schedule: Q04DX004 (sc), vehicle: Klucel (hydroxypropylcellulose) (HPC)) is reported as 39 % of control and the T/C (dose: 0.38 mg/kg/injection, schedule: Q04DX004 (sc), vehicle: Klucel (hydroxypropylcellulose) (HPC)) is reported as 85 % of control. For the same compound, the T/C (dose: 0.75 mg/kg/injection, schedule: Q04DX004 (sc), vehicle: Klucel (hydroxypropylcellulose) (HPC)) was 89 % of control, the T/C (dose: 1.2 mg/kg/injection, schedule: Q04DX004 (sc), vehicle: Klucel (hydroxypropylcellulose) (HPC)) was 46 % of control and the T/C (dose: 1.5 mg/kg/injection, schedule: Q04DX004 (sc), vehicle: Klucel (hydroxypropylcellulose) (HPC)) was 21 % of control.

In the case of Cc1cc(NS(=O)(=O)c2ccc(N=Nc3cc(N=Nc4ccc(S(=O)(=O)Nc5cc(C)nc(C)n5)cc4)c4c(NC(=O)C(Cl)Cl)cccc4c3OC(=O)C(Cl)Cl)cc2)nc(C)n1 (tested in a mixture with another compound), the T/C [13] is reported as 204 % of control and the T/C [11] is reported as 72 % of control.

CN(C)N=Nc1ccccc1 was tested, and the T/C (dose: 25.0 mg/kg/injection, schedule: Q04DX004 (sc), vehicle: Klucel (hydroxypropylcellulose) (HPC)) was 93 % of control, the T/C (dose: 50.0 mg/kg/injection, schedule: Q04DX004 (sc), vehicle: Klucel (hydroxypropylcellulose) (HPC)) was 62 % of control and the T/C (dose: 100.0 mg/kg/injection, schedule: Q04DX004 (sc), vehicle: Klucel (hydroxypropylcellulose) (HPC)) was 84 % of control.

For NC(CCl)=NCC12CC3CC(CC(C3)C1)C2, the T/C (dose: 37.5 mg/kg/injection, schedule: Q04DX004 (sc), vehicle: Klucel (hydroxypropylcellulose) (HPC)) was 97 % of control and the T/C [12] was 114 % of control.

With Cc1cc(N(CCOS(C)(=O)=O)CCOS(C)(=O)=O)ccc1C=Nc1ccc(-c2nc(Cc3ccccc3)sc2C)cc1 the T/C [9] was 92 % of control, the T/C [10] was 80 % of control and the T/C (dose: 200.0 mg/kg/injection, schedule: Q01DX010 (sc), vehicle: Klucel (hydroxypropylcellulose) (HPC)) was 117 % of control.

For C=C1CC2(OC1=O)C(=O)N(C)c1ccc(I)cc12 (stereo not drawn), the T/C (dose: 37.5 mg/kg/injection, schedule: Q04DX004 (sc), vehicle: suspension in saline) was 80 % of control, the T/C (dose: 75.0 mg/kg/injection, schedule: Q04DX004 (sc), vehicle: suspension in saline) was 71 % of control and the T/C [13] was 81 % of control.
